Source: US20260158009A1 (GENZYME CORPORATION, priority 2023, published 2026)

Tests used:
[1] = test system: U937 cells; assay: Cellular assay in U937 cells: activity of RIPK1 inhibitors on TNFα/zVAD.fmk-induced cell death (necroptosis), CellTiter 96 AQueous (MTS) readout; type: cell-based; settings: Homo sapiens, U-937
How it was run: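 Necroptosis was measured by viable-cell MTS reduction (4 h, absorbance 490 nm) after overnight (18–24 h) 37° C culture. Cell suspensions of U937 cells carried TNFα (100 ng/ml) plus zVAD.fmk (50 μM) before compound was added. A 10-point curve (10 μM–0.26 nM or 1 μM–0.07 nM) was run in duplicate, normalised to the control lacking TNFα/zVAD.fmk.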

[2] = target: T1, hRIPK1 (aa 1-375) fusion protein (Homo sapiens, UniProt Q13546); assay: ADP-Glo kinase assay: catalytic activity of RIPK1 (autophosphorylation, conversion of ATP to ADP); type: biochemical
T1 construct: hRIPK1 (aa 1-375) fusion protein
T1 sequence (Q13546 1-375): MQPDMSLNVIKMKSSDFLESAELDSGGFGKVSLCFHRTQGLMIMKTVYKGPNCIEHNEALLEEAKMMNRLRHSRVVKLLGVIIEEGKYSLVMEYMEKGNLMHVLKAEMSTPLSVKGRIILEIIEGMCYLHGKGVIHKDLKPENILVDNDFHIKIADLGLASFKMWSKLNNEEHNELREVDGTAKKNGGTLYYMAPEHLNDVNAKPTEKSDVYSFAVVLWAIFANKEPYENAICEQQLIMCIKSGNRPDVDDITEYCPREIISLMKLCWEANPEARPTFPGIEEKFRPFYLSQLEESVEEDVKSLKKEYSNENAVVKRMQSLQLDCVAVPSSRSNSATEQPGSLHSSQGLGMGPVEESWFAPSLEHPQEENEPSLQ
How it was run: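 The readout was ADP-Glo luminescence after a 240 min rt autophosphorylation reaction with 50 μM ATP, following 30 min preincubation of 3.6 μg/ml hRIPK1 (aa 1-375) fusion with compound at 33300-1.69 nM final in 1% DMSO. Values came from Levenberg-Marquardt nonlinear fits.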

Row | SMILES | IC50 [1] [nM] | IC50 [2] [nM]
1 | Cc1cn2nc(C[C@H]3CC[C@H](C(=O)N4OCC[C@H]4c4cc(F)cc(F)c4)CC3)cc(C)c2n1 [compound 291, trans-[(3S)-3-(3,5-difluorophenyl)isoxazolidin-2-yl]-[4-[(2,8-dimethylimidazo[1,2-b]pyridazin-6-yl)methyl]cyclohexyl]methanone] | 1 | 12
2 | Cc1cn2nc(C[C@H]3CC[C@H](C(=O)N4OCC[C@H]4c4cc(F)cc(C#N)c4)CC3)c(C)cc2n1 [compound 292, trans-3-[(3S)-2-[4-[(2,7-dimethylimidazo[1,2-b]pyridazin-6-yl)methyl]cyclohexanecarbonyl]isoxazolidin-3-yl]-5-fluoro-benzonitrile] | 4 | 14
3 | Cc1cn2nc(C[C@H]3CC[C@H](C(=O)N4OCC[C@H]4c4cc(F)cc(F)c4)CC3)c(C)cc2n1 [compound 293, trans-[(3S)-3-(3,5-difluorophenyl)isoxazolidin-2-yl]-[4-[(2,7-dimethylimidazo[1,2-b]pyridazin-6-yl)methyl]cyclohexyl]methanone] | 3 | 14
4 | Cn1ncc2ccc(C[C@H]3CC[C@H](C(=O)N4OCC[C@H]4c4cc(F)cc(C#N)c4)CC3)cc21 [compound 294, trans-3-fluoro-5-[(3S)-2-[4-[(1-methylindazol-6-yl)methyl]cyclohexanecarbonyl]isoxazolidin-3-yl]benzonitrile] | 1 | 4
5 | Cn1ncc2ccc(C[C@H]3CC[C@H](C(=O)N4OCC[C@H]4c4cc(F)cc(F)c4)CC3)cc21 [compound 295, trans-[(3S)-3-(3,5-difluorophenyl)isoxazolidin-2-yl]-[4-[(1-methylindazol-6-yl)methyl]cyclohexyl]methanone] | 1 | 6
6 | Cn1ncc2ncc(C[C@H]3CC[C@H](C(=O)N4OCC[C@H]4c4cc(F)cc(C#N)c4)CC3)cc21 [compound 296, trans-3-fluoro-5-[(3S)-2-[4-[(1-methylpyrazolo[4,3-b]pyridin-6-yl)methyl]cyclohexanecarbonyl]isoxazolidin-3-yl]benzonitrile] | 2 | 5
7 | Cn1ncc2ncc(C[C@H]3CC[C@H](C(=O)N4OCC[C@H]4c4cc(F)cc(F)c4)CC3)cc21 [compound 297, trans-[(3S)-3-(3,5-difluorophenyl)isoxazolidin-2-yl]-[4-[(1-methylpyrazolo[4,3-b]pyridin-6-yl)methyl]cyclohexyl]methanone] | 7 | 14
8 | Cc1ccc([C@@H]2CCON2C(=O)[C@H]2CC[C@H](Cn3ncc4cc(C#N)c(F)cc43)CC2)cn1 [compound 298, 6-fluoro-1-[[trans-4-[(3S)-3-(6-methyl-3-pyridyl)isoxazolidine-2-carbonyl]cyclohexyl]methyl]indazole-5-carbonitrile] | 6 | 20
9 | Cc1cncc([C@@H]2CCON2C(=O)[C@H]2CC[C@H](Cc3ccc(F)c(C(N)=O)c3)CC2)n1 [compound 299, trans-2-fluoro-5-[[4-[(3S)-3-(6-methylpyrazin-2-yl)isoxazolidine-2-carbonyl]cyclohexyl]methyl]benzamide] | 19 | 14
10 | Cc1cc(C[C@H]2CC[C@H](C(=O)N3OCC[C@H]3c3cc(F)cc(C#N)c3)CC2)cn2c(C)nnc12 [compound 300, trans-3-[(3S)-2-[4-[(3,8-dimethyl-[1,2,4]triazolo[4,3-a]pyridin-6-yl)methyl]cyclohexanecarbonyl]-1,2-oxazolidin-3-yl]-5-fluorobenzonitrile] | 13 | 19
11 | Cc1cc(C[C@H]2CC[C@H](C(=O)N3OCC[C@H]3c3cnccn3)CC2)cn2c(C)nnc12 [compound 301, trans-[4-[(3,8-dimethyl-[1,2,4]triazolo[4,3-a]pyridin-6-yl)methyl]cyclohexyl]-[(3S)-3-pyrazin-2-yl-1,2-oxazolidin-2-yl]methanone] | 34 | 33
12 | Cc1cc(C[C@H]2CC[C@H](C(=O)N3OCC[C@H]3c3cc(F)cc(C#N)c3)CC2)cnn1 [compound 302, trans-3-fluoro-5-[(3S)-2-[4-[(6-methylpyridazin-4-yl)methyl]cyclohexanecarbonyl]isoxazolidin-3-yl]benzonitrile] | 37 | 31
13 | Cc1ccc(C[C@H]2CC[C@H](C(=O)N3OCC[C@H]3c3cc(F)cc(C#N)c3)CC2)nn1 [compound 303, trans-3-fluoro-5-[(3S)-2-[4-[(6-methylpyridazin-3-yl)methyl]cyclohexanecarbonyl]isoxazolidin-3-yl]benzonitrile] | 16 | 7
14 | Cc1ccc(C[C@H]2CC[C@H](C(=O)N3OCC[C@H]3c3cc(F)cc(F)c3)CC2)nn1 [compound 304, trans-[(3S)-3-(3,5-difluorophenyl)isoxazolidin-2-yl]-[4-[(6-methylpyridazin-3-yl)methyl]cyclohexyl]methanone] | 33 | 23
15 | Cc1cc(-c2cncc(C[C@H]3CC[C@H](C(=O)N4OCC[C@H]4c4cnccn4)CC3)c2)n(C)n1 [compound 305, trans-[4-[[5-(2,5-dimethylpyrazol-3-yl)-3-pyridyl]methyl]cyclohexyl]-[(3S)-3-pyrazin-2-ylisoxazolidin-2-yl]methanone] | 43 | 29
16 | Cn1nccc1C[C@H]1CC[C@H](C(=O)N2OCC[C@H]2c2ccc(F)cc2)CC1 [compound 306, trans-[(3S)-3-(4-fluorophenyl)isoxazolidin-2-yl]-[4-[(2-methylpyrazol-3-yl)methyl]cyclohexyl]methanone] | 25 | 17
17 | Cn1nccc1C[C@H]1CC[C@H](C(=O)N2OCC[C@H]2c2cc(F)cc(F)c2)CC1 [compound 307, trans-[(3S)-3-(3,5-difluorophenyl)isoxazolidin-2-yl]-[4-[(2-methylpyrazol-3-yl)methyl]cyclohexyl]methanone] | 2 | 15
18 | Cc1nn(C)cc1-c1cncc(C[C@H]2CC[C@H](C(=O)N3OCC[C@H]3c3cnccn3)CC2)c1 [compound 308, trans-[4-[[5-(1,3-dimethylpyrazol-4-yl)-3-pyridyl]methyl]cyclohexyl]-[(3S)-3-pyrazin-2-ylisoxazolidin-2-yl]methanone] | 47 | 21
19 | Cc1ncc(C[C@H]2CC[C@H](C(=O)N3OCC[C@H]3c3ccc(F)c(F)c3)CC2)cn1 [compound 309, trans-[(3S)-3-(3,4-difluorophenyl)isoxazolidin-2-yl]-[4-[(2-methylpyrimidin-5-yl)methyl]cyclohexyl]methanone] | 50 | 15
20 | Cc1nc2ccc(C[C@H]3CC[C@H](C(=O)N4OCC[C@H]4c4ccc(F)c(F)c4)CC3)nn2n1 [compound 310, trans-[(3S)-3-(3,4-difluorophenyl)isoxazolidin-2-yl]-[4-[(2-methyl-[1,2,4]triazolo[1,5-b]pyridazin-6-yl)methyl]cyclohexyl]methanone] | 22 | 12
21 | Cn1nccc1C[C@H]1CC[C@H](C(=O)N2OCC[C@H]2c2ccc(F)c(F)c2)CC1 [compound 311, trans-[(3S)-3-(3,4-difluorophenyl)isoxazolidin-2-yl]-[4-[(2-methylpyrazol-3-yl)methyl]cyclohexyl]methanone] | 16 | 11
22 | Cc1cc(C[C@H]2CC[C@H](C(=O)N3OCC[C@H]3c3cc(F)cc(C#N)c3)CC2)nc(C)n1 [compound 312, 3-[(3S)-2-[4-[(2,6-dimethylpyrimidin-4-yl)methyl]cyclohexanecarbonyl]isoxazolidin-3-yl]-5-fluoro-benzonitrile] | 20 | 38
23 | Cc1cc(C[C@H]2CC[C@H](C(=O)N3OCC[C@H]3c3cc(F)cc(F)c3)CC2)ncn1 [compound 313, trans-[(3S)-3-(3,5-difluorophenyl)isoxazolidin-2-yl]-[4-[(6-methylpyrimidin-4-yl)methyl]cyclohexyl]methanone] | 40 | 42
24 | Cc1nc2ccc(C[C@H]3CC[C@H](C(=O)N4OCC[C@H]4c4cc(F)cc(F)c4)CC3)nn2n1 [compound 315, [(3S)-3-(3,5-difluorophenyl)-1,2-oxazolidin-2-yl]-[4-[(2-methyl-[1,2,4]triazolo[1,5-b]pyridazin-6-yl)methyl]cyclohexyl]methanone] | 20 | 10
25 | Cc1cnc([C@@H]2CCON2C(=O)[C@H]2CC[C@H](Cc3cc(F)cnc3C)CC2)cn1 [compound 316, trans-[4-[(5-fluoro-2-methyl-3-pyridyl)methyl]cyclohexyl]-[(3S)-3-(5-methylpyrazin-2-yl)isoxazolidin-2-yl]methanone] | 27 | 31
26 | Cc1cc2nnc(C)n2cc1C[C@H]1CC[C@H](C(=O)N2OCC[C@H]2c2cccc(F)c2)CC1 [compound 317, trans-[4-[(3,7-dimethyl-[1,2,4]triazolo[4,3-a]pyridin-6-yl)methyl]cyclohexyl]-[(3S)-3-(3-fluorophenyl)isoxazolidin-2-yl]methanone] | 2 | 7
